According to patent US20230183239A1, “ECTONUCLEOTIDE PYROPHOSPHATASE-PHOSPHODIESTERASE 1 (ENPP-1) INHIBITORS AND USES THEREOF” (AbbVie Inc., priority 2017, published 2023):

Experiments:
Type in all cases: biochemical
ENPP1 [1] = biological target: T1, ENPP1 (Homo sapiens, UniProt P22413); experiment: Indirect quantitation of 2',3'-cGAMP hydrolysis (AMP-Glo Assay kit); conditions: cGAMP substrate; Ki from IC50 by Cheng-Prusoff; read-out: ENPP1 Inhibition -cGAMP: Ki
T1 sequence (P22413 1-925): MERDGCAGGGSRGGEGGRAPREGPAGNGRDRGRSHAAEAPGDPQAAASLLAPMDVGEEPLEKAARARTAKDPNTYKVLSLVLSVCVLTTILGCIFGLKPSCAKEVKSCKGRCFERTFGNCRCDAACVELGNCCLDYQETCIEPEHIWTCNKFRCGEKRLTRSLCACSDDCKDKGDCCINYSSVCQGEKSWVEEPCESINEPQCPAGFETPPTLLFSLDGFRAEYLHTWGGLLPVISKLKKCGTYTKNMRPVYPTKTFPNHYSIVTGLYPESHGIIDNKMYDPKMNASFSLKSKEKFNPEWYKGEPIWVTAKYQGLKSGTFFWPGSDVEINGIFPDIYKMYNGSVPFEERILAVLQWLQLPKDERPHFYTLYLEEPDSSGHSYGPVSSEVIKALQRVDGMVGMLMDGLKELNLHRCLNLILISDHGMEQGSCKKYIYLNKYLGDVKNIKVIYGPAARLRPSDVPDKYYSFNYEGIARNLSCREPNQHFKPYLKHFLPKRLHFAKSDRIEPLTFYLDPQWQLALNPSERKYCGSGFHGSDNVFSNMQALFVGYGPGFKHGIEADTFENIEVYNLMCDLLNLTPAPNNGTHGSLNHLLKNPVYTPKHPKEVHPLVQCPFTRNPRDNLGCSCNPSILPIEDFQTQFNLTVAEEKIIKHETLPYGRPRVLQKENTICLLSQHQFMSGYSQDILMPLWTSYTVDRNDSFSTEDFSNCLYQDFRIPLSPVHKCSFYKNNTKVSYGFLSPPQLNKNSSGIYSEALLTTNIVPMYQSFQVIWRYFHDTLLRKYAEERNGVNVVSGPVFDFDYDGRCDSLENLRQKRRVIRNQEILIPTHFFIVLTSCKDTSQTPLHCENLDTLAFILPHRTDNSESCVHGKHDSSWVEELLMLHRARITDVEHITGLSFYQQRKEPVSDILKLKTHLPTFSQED

ENPP1 [2] = biological target: T1, ENPP1; experiment: Substrate selectivity ratio, inhibition of cGAMP hydrolysis versus ATP hydrolysis; conditions: ratio Ki AMP-pNP / Ki cGAMP
Procedure: The selectivity ratios for inhibition of cGAMP hydrolysis versus ATP hydrolysis were then calculated as follows: […]

ENPP1 [3] = biological target: T1, ENPP1; experiment: ENPP1 enzyme assay with AMP-pNP substrate (hydrolysis of ATP analog); conditions: AMP-pNP substrate (ATP analog); Ki from IC50 by Cheng-Prusoff; read-out: ENPP1 Inhibition _AMP-pNP: Ki
Procedure: The ENPP1 assay with AMP-pNP substrate is conducted in a buffer containing 50 mM Tris-HCl (pH 8.5)/ 250 mM NaCl/0.5 mM CaCl2/1 µM ZnCl2/0.1% DMSO. Inhibitors are added at final concentrations ranging between 10 µM and 30 pM depending on the compound. Duplicate wells are run at each inhibitor concentration. The final assay volume is 40 µL and human recombinant ENPP1 is present at 60 ng/well. The assay is initiated by the addition of substrate (300 µM AMP-pNP final concentration), and incubated for 20 minutes at 37° C. […] Each assay plate also includes wells with no enzyme added (MIN OD) and wells with no inhibitor added (MAX OD). The percent inhibition of ENPP1 for each sample is then calculated as: […]
IC50 values of compounds were calculated by entering the percent inhibition values into a sigmoidal variable slope nonlinear regression model in GraphPad Prism® software.

| Ki (ENPP1 [1]) | Substrate Selectivity: Ki_AMP-pNP/Ki_cGAMP (ENPP1 [2]) | Ki (ENPP1 [3]) | Structure (SMILES) |
| --- | --- | --- | --- |
| < 100 nM | 30.7 | 100 to 1000 nM | COc1cc2nccc(N3CCc4cc(NS(N)(=O)=O)ccc43)c2cc1OC [Example 281, N-(1-(6,7-dimethoxyquinolin-4-yl)indolin-5-yl)sulfamide] |
| 100 to 1000 nM | >13.0 | > 1000 nM | NS(=O)(=O)N1CCC2(CCN(c3ccnc4cc(OC(F)F)ccc34)CC2)C1 [Example 265, 8-(7-(difluoromethoxy)quinolin-4-yl)-2,8-diazaspiro[4.5]decane-2-sulfonamide] |
| 100 to 1000 nM | >74 | > 1000 nM | COc1ccc2c(Oc3ccc(NS(N)(=O)=O)cc3C#N)ccnc2c1 [Example 353] |
| 100 to 1000 nM |  | > 1000 nM | COc1cc2nccc(Nc3ccc(NS(=O)(=O)C(F)(F)F)cc3)c2cc1OC [Example 174, N-(4-((6,7-dimethoxyquinolin-4-yl)amino)phenyl)-1,1,1-trifluoromethanesulfonamide] |
| > 1000 nM |  | > 1000 nM | NS(=O)(=O)NCCC1CCN(c2cc(-c3ccc4c(c3)OCO4)ncn2)CC1 [Example 10, N-(2-(1-(6-(benzo[d][1,3]dioxol-5-yl)pyrimidin-4-yl)piperidin-4-yl)ethyl)sulfamide] |
|  | 39.4 | > 1000 nM | COc1cc2ncnc(N3CCC4(CC3)CN(S(N)(=O)=O)C4)c2cc1OC [Example 30, 7-(6,7-dimethoxyquinazolin-4-yl)-2,7-diazaspiro[3.5]nonane-2-sulfonamide] |
| > 1000 nM |  |  | COc1cc2ncnc(N3CCC(CCNS(=O)(=O)Nc4ccccc4)CC3)c2cc1OC [Example 183] |
| > 1000 nM |  |  | COc1cc2nccc(N(C)Cc3ccc(NS(N)(=O)=O)cc3)c2cc1OC [Example 255, N-(4-(((6,7-dimethoxyquinolin-4-yl)(methyl)amino)methyl)phenyl)s ulfamide] |
| < 100 nM |  |  | COc1cc2nccc(Oc3ccc(NS(=O)(=O)C(F)(F)F)cc3)c2cc1OC [Example 162, N-(4-((6,7-dimethoxyquinolin-4-yl)oxy)phenyl)-1,1,1-trifluoromethanesulfonamide] |
| 100 to 1000 nM |  |  | Cn1cc(Br)c2ncnc(N3CCC(CCNS(N)(=O)=O)CC3)c21 [Example 138, N-(2-(1-(7-bromo-5-methyl-SH-pyrrolo[3,2-d]pyrimidin-4-yl)piperidin-4-yl)ethyl)sulfamide] |
| > 1000 nM |  |  | COc1cc2nccc(Oc3ccc(N)cc3)c2cc1OC [Example 341, 4-((6,7-dimethoxyquinolin-4-yl)oxy)aniline] |
| > 1000 nM |  |  | COc1cc2ncnc(NCc3ccc4c(c3)OCO4)c2cc1OC [Example 336, N-(benzo[d][1,3]dioxol-5-ylmethyl)-6,7-dimethoxyquinazolin-4-amine] |
| > 1000 nM |  |  | COc1ccc(-c2cc(N3CCC(CCNS(N)(=O)=O)CC3)ncn2)cc1OC [Example 38, N-(2-(1-(6-(3,4-dimethoxyphenyl)pyrimidin-4-yl)piperidin-4-yl)ethyl)sulfamide] |
| > 1000 nM |  |  | COc1ccc2c(c1)OCCC2Oc1ccc(NS(N)(=O)=O)cc1 (centres unmarked) [Example 399, (4-((7-methoxychroman-4-yl)oxy)phenyl)sulfamide] |
| < 100 nM |  |  | COc1ccc2c(Oc3ccc(S(N)(=O)=O)cc3)c(C#N)cnc2c1 [Example 327, 4-((3-cyano-7-methoxyquinolin-4-yl)oxy)benzenesulfonamide] |
| > 1000 nM |  |  | COc1ccc(-c2cc(N3CCC(CNS(N)(=O)=O)CC3)ncn2)cc1OC [Example 37, N-((1-(6-(3,4-dimethoxyphenyl)pyrimidin-4-yl)piperidin-4-yl)methyl)sulfamide] |
| > 1000 nM |  |  | COc1cnc(C(=O)N2CCC(CCNS(N)(=O)=O)CC2)cc1OC [Example 124, N-(2-(1-(4,5-dimethoxypicolinoyl)piperidin-4-yl)ethyl)sulfamide] |

Continued, compound first:

| Structure (SMILES) | Ki (ENPP1 [1]) | Substrate Selectivity: Ki_AMP-pNP/Ki_cGAMP (ENPP1 [2]) | Ki (ENPP1 [3]) |
| --- | --- | --- | --- |
| COc1cc2nccc(Oc3ccc(NS(N)(=O)=O)cc3)c2cc1F [Example 282, N-(4-((6-fluoro-7-methoxyquinolin-4-yl)oxy)phenyl)sulfamide] | < 100 nM |  | < 100 nM |
| COc1cc2ncnc(N(C)c3ccc(NS(N)(=O)=O)cc3)c2cc1OC [Example 190, N-(4-((6,7-dimethoxyquinazolin-4-yl)(methyl)amino)phenyl)sulfamide] | > 1000 nM |  | > 1000 nM |
| COc1ccc2c(-c3ccc4c(c3)CN(S(N)(=O)=O)CC4)c(C#N)cnc2c1 [Example 249, 7-(3-cyano-7-methoxyquinolin-4-yl)-3,4-dihydroisoquinoline-2(1H)-sulfonamide] | 100 to 1000 nM |  | > 1000 nM |
| COc1cc2ncnc(N3CCC(CCNS(=O)(=O)N4CCOCC4)CC3)c2cc1OC [Example 132, N-(2-(1-(6,7-dimethoxyquinazolin-4-yl)piperidin-4-yl)ethyl)morpholine-4-sulfonamide] | 100 to 1000 nM |  |  |
| CNc1cc(OC)c(OC)cc1C(=O)N1CCC(CCNS(N)(=O)=O)CC1 [Example 123, N-(2-(1-(4,5-dimethoxy-2-(methylamino)benzoyl)piperidin-4-yl)ethyl)sulfamide] | > 1000 nM |  |  |
| COc1cc2nccc(C(=O)N3CCC(CNS(N)(=O)=O)CC3)c2cc1OC [Example 178, N-((1-(6,7-dimethoxyquinoline-4-carbonyl)piperidin-4-yl)methyl)sulfamide] | > 1000 nM |  |  |
| COc1cc2ncnc(-c3ccc4c(c3)CCC(NS(N)(=O)=O)C4)c2cc1OC (centres unmarked) [Example 131, N-(6-(6,7-dimethoxyquinazolin-4-yl)-1,2,3,4-tetrahydronaphthalen-2-yl)sulfamide] | > 1000 nM |  |  |
| COc1cc2ncn(Cc3ccc(NS(N)(=O)=O)cc3)c(=O)c2cc1OC [Example 165, N-(4-((6,7-dimethoxy-4-oxoquinazolin-3 (4H)-yl)methyl)phenyl) sulfamide] | > 1000 nM |  |  |
| COc1cc2ncc(-c3ccc(NS(N)(=O)=O)cc3)nc2cc1OC [Example 270, N-(4-(6,7-dimethoxyquinoxalin-2-yl)phenyl)sulfamide] | > 1000 nM |  |  |
| COc1cc2ncnc(N3CCC(CCNS(=O)(=O)NC(C)C)CC3)c2cc1OC [Example 142, 2-(1-(6,7-dimethoxyquinazolin-4-yl)piperidin-4-yl)ethan-1-amino(N-prop-2-yl)sulfonamide] | > 1000 nM |  |  |
| COc1cc2c(cc1OC)N(Cc1ccc(NS(N)(=O)=O)cc1)C(=O)CC2 [Example 173, N-(4-((6,7-dimethoxy-2-oxo-3,4-dihydroquinolin-1 (2H)-yl)methyl)phenyl) sulfamide] | > 1000 nM |  |  |
| COc1ccc2c(-c3ccc(CNS(N)(=O)=O)cc3)coc2c1 [Example 348, N-(4-(6-methoxybenzofuran-3-yl)benzyl) sulfamide] | 100 to 1000 nM |  |  |
| NS(=O)(=O)NCCC1CCN(c2ccnc3ncn(-c4ccccc4)c23)CC1 [Example 211, N-(2-(1-(1-phenyl-1H-imidazo[4,5-b]pyridin-7-yl)piperidin-4-yl)ethyl)sulfamide] | > 1000 nM |  |  |
| COc1ccc2c(Oc3ccc(C(=O)O)c(OC)c3)ccnc2c1 [Example 347, 2-methoxy-4-((7-methoxyquinolin-4-yl)oxy)benzoic acid] | 100 to 1000 nM |  |  |
| COc1ccc2c(=O)n(Cc3ccc(S(N)(=O)=O)cc3)cnc2c1 [Example 400, 4-((7-methoxy-4-oxoquinazolin-3(4H)-yl)methyl)benzenesulfonamide] | > 1000 nM |  |  |
| COc1cc2nccc(C(=O)N3CCC(CCNS(N)(=O)=O)CC3)c2cc1OC [Example 154, N-(2-(1-(6,7-dimethoxyquinoline-4-carbonyl)piperidin-4-yl)ethyl)sulfamide] | > 1000 nM |  |  |
| COc1cc2ncc(Oc3ccc(NS(N)(=O)=O)cc3)nc2cc1OC [Example 280, N-(4-((6,7-dimethoxyquinoxalin-2-yl)oxy)phenyl)sulfamide] | > 1000 nM |  |  |
| COc1ccc2c(Oc3ccc(NS(N)(=O)=O)cc3)ccnc2c1F [Example 268, N-(4-((8-fluoro-7-methoxyquinolin-4-yl)oxy)phenyl)sulfamide] | > 1000 nM |  |  |
